Measurements as given in the supplement of paper PMC8253809.

Assays:
HGGX6 = H3.3 G34R paediatric high-grade glioma line; assay: growth inhibition relative to DMSO (0) and positive control (1) (fraction); higher = more growth inhibition
Experimental: (§1)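 Paxalisib (GDC0084) x mirdametinib (PD0325901) dose matrix on pHGG cell lines and astrocyte controls, 7 days, adherent 384-well. CellTiter-Glo RLU was normalised (no log2) to fractional activity between DMSO (0) and the positive control (1). Each combination was tested in two plate orientations.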

DIPGX7 = H3.3 K27M diffuse intrinsic pontine glioma line; assay: as above
Experimental: as §1

O=C(NOC[C@H](O)CO)c1ccc(F)c(F)c1Nc1ccc(I)cc1F + CC1(C)OCCn2c1nc1c(N3CCOCC3)nc(-c3cnc(N)nc3)nc12 [GDC0084]
growth inhibition
Details	compound 1 concentration 0.009766 µM	compound 1 concentration 0.01953 µM	compound 1 concentration 0.03906 µM	compound 1 concentration 0.07812 µM	compound 1 concentration 0.15625 µM	compound 1 concentration 0.3125 µM	compound 1 concentration 0.625 µM	compound 1 concentration 1.25 µM	compound 1 concentration 5 µM	compound 1 concentration 20 µM
DIPGX7, compound 2 concentration 0.03906 µM	-0.0325	-0.0312	-0.0934	-0.145	-0.164	-0.126	-0.119	0.0102	0.288	0.312
DIPGX7, compound 2 concentration 0.07812 µM	0.189	0.113	0.0974	0.0816	-0.0134	0.0326	0.0363	0.178	0.344	0.313
DIPGX7, compound 2 concentration 0.15625 µM	0.43	0.379	0.335	0.264	0.267	0.238	0.296	0.364	0.563	0.467
DIPGX7, compound 2 concentration 0.3125 µM	0.611	0.641	0.589	0.561	0.514	0.483	0.563	0.627	0.793	0.747
DIPGX7, compound 2 concentration 0.625 µM	0.781	0.802	0.8	0.791	0.779	0.782	0.841	0.884	0.941	0.918
DIPGX7, compound 2 concentration 1.25 µM	0.874	0.865	0.876	0.884	0.893	0.906	0.934	0.96	0.982	0.983
DIPGX7, compound 2 concentration 5 µM	0.937	0.933	0.938	0.962	0.972	0.98	0.99	0.999	1	1
DIPGX7, compound 2 concentration 20 µM	0.977	0.987	0.989	0.994	0.998	1	1	1	1	1
HGGX6, compound 2 concentration 0.03906 µM	-0.0587	-0.133	-0.0423	-0.0209	0.0525	0.0544	0.136	0.172	0.433	0.608
HGGX6, compound 2 concentration 0.07812 µM	0.159	0.159	0.235	0.123	0.215	0.239	0.175	0.334	0.493	0.707
HGGX6, compound 2 concentration 0.15625 µM	0.0791	0.129	0.0602	0.134	0.0901	0.167	0.22	0.321	0.536	0.68
HGGX6, compound 2 concentration 0.3125 µM	0.217	0.19	0.195	0.14	0.172	0.319	0.322	0.391	0.572	0.713
HGGX6, compound 2 concentration 0.625 µM	0.371	0.37	0.329	0.373	0.258	0.373	0.432	0.457	0.633	0.748
HGGX6, compound 2 concentration 1.25 µM	0.572	0.523	0.53	0.483	0.467	0.501	0.53	0.544	0.679	0.799
HGGX6, compound 2 concentration 5 µM	0.709	0.727	0.714	0.72	0.705	0.725	0.719	0.747	0.798	0.86
HGGX6, compound 2 concentration 20 µM	0.867	0.859	0.851	0.861	0.86	0.852	0.866	0.859	0.887	0.947

CC1(C)OCCn2c1nc1c(N3CCOCC3)nc(-c3cnc(N)nc3)nc12 [GDC0084] + O=C(NOC[C@H](O)CO)c1ccc(F)c(F)c1Nc1ccc(I)cc1F [PD0325901]
growth inhibition
Details	compound 1 concentration 0.009766 µM	compound 1 concentration 0.01953 µM	compound 1 concentration 0.03906 µM	compound 1 concentration 0.07812 µM	compound 1 concentration 0.15625 µM	compound 1 concentration 0.3125 µM	compound 1 concentration 0.625 µM	compound 1 concentration 1.25 µM	compound 1 concentration 5 µM	compound 1 concentration 20 µM
DIPGX7, compound 2 concentration 0.03906 µM	-0.121	-0.103	-0.085	0.0493	0.217	0.56	0.762	0.886	0.945	0.998
DIPGX7, compound 2 concentration 0.07812 µM	-0.0496	9.09e-05	0.0209	0.0495	0.252	0.537	0.775	0.88	0.956	0.997
DIPGX7, compound 2 concentration 0.15625 µM	-0.0185	0.0149	0.038	0.0769	0.248	0.507	0.771	0.891	0.965	0.999
DIPGX7, compound 2 concentration 0.3125 µM	-0.0519	0.0198	0.0847	0.101	0.248	0.522	0.802	0.91	0.983	1
DIPGX7, compound 2 concentration 0.625 µM	0.0193	0.0541	0.102	0.141	0.301	0.534	0.825	0.938	0.992	1
DIPGX7, compound 2 concentration 1.25 µM	0.138	0.158	0.168	0.231	0.351	0.606	0.868	0.961	0.998	1
DIPGX7, compound 2 concentration 5 µM	0.215	0.278	0.311	0.354	0.555	0.784	0.933	0.986	1	1
DIPGX7, compound 2 concentration 20 µM	0.18	0.195	0.238	0.323	0.539	0.765	0.933	0.988	1	1
HGGX6, compound 2 concentration 0.03906 µM	-0.0592	-0.118	-0.0557	0.0473	0.0152	0.16	0.251	0.451	0.708	0.857
HGGX6, compound 2 concentration 0.07812 µM	0.064	-0.018	-0.00542	0.0583	0.162	0.132	0.254	0.475	0.717	0.883
HGGX6, compound 2 concentration 0.15625 µM	0.0118	0.0255	-0.000602	0.014	0.0815	0.2	0.302	0.466	0.711	0.857
HGGX6, compound 2 concentration 0.3125 µM	0.0282	0.112	0.0905	0.102	0.124	0.205	0.31	0.505	0.707	0.865
HGGX6, compound 2 concentration 0.625 µM	0.155	0.263	0.16	0.217	0.212	0.336	0.371	0.511	0.733	0.849
HGGX6, compound 2 concentration 1.25 µM	0.226	0.235	0.284	0.245	0.295	0.368	0.424	0.564	0.776	0.841
HGGX6, compound 2 concentration 5 µM	0.429	0.43	0.452	0.47	0.569	0.626	0.645	0.728	0.796	0.901
HGGX6, compound 2 concentration 20 µM	0.595	0.612	0.628	0.661	0.667	0.729	0.762	0.814	0.871	0.94
